From patent US9302999B2, “Substituted triazoles as herbicides” (E. I. DU PONT DE NEMOURS AND COMPANY, priority 2012, dated 2016)

What was measured:
Format in all cases: in vivo
[1] = test system: sedge, umbrella (small-flower umbrella sedge Cyperus difformis); assay: Test B flooded paddy: sedge, umbrella; details: Flood, applied to paddy water at 2-leaf stage, visually evaluated after 13 to 15 days
In short: (§1)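 Plants were grown to the 2-leaf stage and pots flooded to 3 cm above soil. Compounds were applied directly into the paddy water, with depth kept for the test. After 13–15 days in greenhouse, response was rated visually against controls on a 0 (no effect) to 100 (complete control) scale.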

[2] = test system: ducksalad (Heteranthera limosa); assay: Test B flooded paddy: ducksalad; details: Flood, applied to paddy water at 2-leaf stage, visually evaluated after 13 to 15 days
In short: as §1

[3] = test system: bermudagrass (Cynodon dactylon); assay: Test C pre-/postemergence: bermudagrass
In short: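 Preemergence on seeds in loam/sand, postemergence on 2–18 cm (1–4-leaf) plants in peat-based medium; compounds in non-phytotoxic solvent with surfactant. After 13–15 days in greenhouse, visual rating versus controls, 0 (no effect) to 100 (complete control).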

| Structure (SMILES) | Plant response rating, Sedge, Umbrella (0 to 100 scale, 0 is no effect, 100 is complete control) ([1]; 250 g ai/ha) | Plant response rating, Ducksalad (0 to 100 scale, 0 is no effect, 100 is complete control) ([2]; 250 g ai/ha) | Plant response rating, Sedge, Umbrella (0 to 100 scale, 0 is no effect, 100 is complete control) ([1]; 125 g ai/ha) | Plant response rating, Ducksalad (0 to 100 scale, 0 is no effect, 100 is complete control) ([2]; 125 g ai/ha) | other results |
| --- | --- | --- | --- | --- | --- |
| Fc1ccc(-n2nc(Cc3ccnc(C(F)(F)F)c3)c(OCC(F)(F)F)n2)cc1 [Compound 142] | 90 | 90 |  |  | Plant response rating, Bermudagrass ([3]; Postemergence, 31 g ai/ha, scale 0 to 100 (0 no effect, 100 complete control)): 15; Plant response rating, Bermudagrass ([3]; Postemergence, 62 g ai/ha, scale 0 to 100 (0 no effect, 100 complete control)): 70; Plant response rating, Bermudagrass ([3]; Postemergence, 125 g ai/ha, scale 0 to 100, 0 no effect, 100 complete control): 75; Plant response rating, Bermudagrass ([3]; Postemergence, 250 g ai/ha, scale 0 to 100): 85; Plant response rating, Bermudagrass ([3]; Preemergence, 31 g ai/ha, scale of 0 to 100, 0 is no effect, 100 is complete control): 98; Plant response rating, Bermudagrass ([3]; Preemergence, 62 g ai/ha, scale of 0 to 100, 0 is no effect, 100 is complete control): 98; Plant response rating, Bermudagrass ([3]; Preemergence, 125 g ai/ha, scale 0 to 100, 0 no effect, 100 complete control): 98; Plant response rating, Bermudagrass ([3]; Preemergence, 250 g ai/ha, scale 0 to 100, 0 no effect, 100 complete control): 98 |
| CCc1nn(-c2ccc(F)cc2)nc1Oc1ccnc(C(F)(F)F)c1 [Compound 166] |  |  | 70 | 70 |  |
| CCCc1nn(-c2ccc(C(F)(F)F)c(F)c2)nc1Oc1ccnc(C(F)(F)F)c1 [Compound 185] | 95 | 65 |  |  |  |
| CCOc1nn(-c2ccc(Br)cc2)nc1Cc1ccnc(C(F)(F)F)c1 [Compound 189] |  |  | 0 | 20 |  |
